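Five concentrations, 48 hours, 96-well plates. At the GI50, growth is halved. Definition used: TGI = concentration required for complete inhibition of growth.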
Experiments:
Assay in all cases: NCI anticancer screen, dose series, 48 h
OVCAR-8 ovarian = system: OVCAR-8 ovarian
HS 578T breast = system: HS 578T breast
MCF7 breast = system: MCF7 breast
UO-31 renal = system: UO-31 renal
OVCAR-4 ovarian = system: OVCAR-4 ovarian
T-47D breast = system: T-47D breast
HOP-62 NSCLC = system: HOP-62 NSCLC
MALME-3M melanoma = system: MALME-3M melanoma

SMILES | TGI (OVCAR-8 ovarian) [µM] | TGI (HS 578T breast) [µM] | TGI (MCF7 breast) [µM] | TGI (UO-31 renal) [µM] | TGI (OVCAR-4 ovarian) [µM] | TGI (T-47D breast) [µM] | TGI (HOP-62 NSCLC) [µM] | TGI (MALME-3M melanoma) [µM] | GI50 (T-47D breast) [µM] | GI50 (OVCAR-8 ovarian) [µM] | GI50 (HOP-62 NSCLC) [µM] | GI50 (HS 578T breast) [µM] | GI50 (UO-31 renal) [µM] | GI50 (MALME-3M melanoma) [µM]
Cc1ccc(C(=O)N/N=C(\N=Nc2ccccc2C(=O)O)c2ccc(N(C)C)cc2)cc1 | > 100 | > 100 | > 100 | > 100 | > 100 |  |  |  |  |  |  |  |  | 
ClC1=C(Cl)C2OC3C=CCC3OC2C(Cl)=C1Cl (stereo not given) | > 100 | 89.7 | > 100 | > 100 | > 100 | > 100 | > 100 |  |  |  |  |  |  | 
CNC(=O)C1OC(n2cnc3c(NCc4cccc(I)c4)nc(Cl)nc32)C(O)C1O (stereo not given) | 26.7 | 18.7 | 25.4 | 24.6 |  | 61.8 | 25.2 | 19.6 |  |  |  |  |  | 
O=C(O)c1cccc(S(=O)(=O)NN2C(=O)CSC2c2c(O)ccc3ccccc23)c1 (stereo not given) | 15.7 |  |  | > 100 | 83 | 80.5 | > 100 | 90.6 |  |  |  |  |  | 
N=C(N)c1ccc(-c2ccc(-c3ccc(Cl)cc3Cl)s2)nc1 | 6.41 | 4.88 |  | 2.93 |  | 4.96 | 3.92 | 3.23 | 2.21 | 2.51 | 1.89 | 2.15 | 1.57 | 1.71
Cn1c(-c2c(C3=CC(=O)N(c4ccccc4)C3=O)c3ccccc3n2C)cc2ccccc21 | > 100 |  | > 100 | > 100 | > 100 | > 100 | > 100 | > 100 |  |  |  |  |  | 
CCc1n[nH]c(=O)[nH]1 | > 100 | > 100 | > 100 | > 100 |  | > 100 | > 100 | > 100 |  |  |  |  |  | 
CCOC(=O)CN1C(=O)C(=O)N(c2ccc(OC)c3ccccc23)C1=O | > 100 |  | > 100 | > 100 | > 100 | > 100 | > 100 | > 100 |  |  |  |  |  | 
Cc1oc2nc(N(C)C)n3cnnc3c2c1C | > 100 | > 100 | > 100 | > 100 | > 100 | > 100 | > 100 |  |  |  |  |  |  | 
Cc1cc(OCc2nnc3n2N=C(c2cc(F)c(Cl)cc2Cl)/C(=C/c2ccc(-c4ccc(Cl)cc4)o2)S3)ccc1Cl | > 50 | > 50 | > 50 | > 50 |  | > 50 | > 50 | > 50 |  |  |  |  |  | 
N#Cc1c(N2CCCC2)nsc1Nc1ccccc1 | > 100 | > 100 |  | > 100 | > 100 | > 100 |  | > 100 |  |  |  |  |  | 
CC(C)N1[C@@H]2CCCC[C@H]2N(C(C)C)[P+]1=O | > 100 | > 100 | > 100 | > 100 |  | > 100 | > 100 |  |  |  |  |  |  | 
c1ccc(OCc2nnc(CCCCCCCCc3nnc(COc4ccccc4)o3)o2)cc1 | > 100 |  | > 100 | > 100 | > 100 |  | > 100 |  |  |  |  |  |  | 
Cc1ccc2c(c1)Nc1ccccc1P2(=O)O | > 100 |  |  | > 100 | > 100 | > 100 | > 100 | > 100 |  |  |  |  |  | 
CCN(CC)C(=O)c1cc([N+](=O)[O-])c(=O)n2c1[nH]c1ccccc12 | > 100 | > 100 |  | > 100 | > 100 | > 100 | > 100 | > 100 |  |  |  |  |  | 
COc1ccc(C2=Nc3c(nc(SC)[nH]c3=O)NC(c3ccccc3)C2)cc1 (stereo not given) | 40.7 |  | 41.8 | 56.3 |  |  | > 100 | > 100 |  |  |  |  |  | 
COC(=N)CCCl | > 100 |  | > 100 | > 100 | > 100 |  | > 100 | > 100 |  |  |  |  |  | 
Cc1ccsc1/C=N/Nc1cc(C)c2ccccc2n1 | 32.7 | 38.6 | 30.4 | 36.1 | 72.2 | > 100 | 78.8 |  |  |  |  |  |  | 
COc1cc(-c2nc(SC)nc3c2CCc2ccccc2-3)cc(OC)c1OC | > 100 | > 100 | > 100 | > 100 | > 100 | > 100 | > 100 |  |  |  |  |  |  | 
Cc1ccc2c(=O)cc(-c3cccc(F)c3)[nH]c2n1 | 1.87 | 0.0591 |  |  | > 100 |  | > 100 | > 100 |  |  |  |  |  | 
CCCCCCCCCCCCCCCCCCNc1nc(=O)n(C2CC(OP(=O)(O)OCC3OC(n4cc(F)c(=O)[nH]c4=O)CC3O)C(CO)O2)cc1F (stereo not given) | 73.3 | > 100 | > 100 | 44.2 | > 100 | > 100 | > 100 |  |  |  |  |  |  | 
CC1C(c2ccccc2)NC(c2ccccc2)CC1(N)C#N (stereo not given) | > 100 | > 100 | > 100 | > 100 | > 100 | > 100 | > 100 |  |  |  |  |  |  | 
COc1cccc(N(CN2C(=O)CCC2OC)C(C)=O)c1 (stereo not given) | > 100 | > 100 | > 100 | > 100 | > 100 | > 100 | > 100 |  |  |  |  |  |  | 
CCN(CCC#N)C(=O)Nc1ccccc1 | > 100 |  | > 100 | > 100 | > 100 | > 100 | > 100 | > 100 |  |  |  |  |  | 
